Laboratory results published in patent US12376594B2, “Pest control kit and method” (priority 2019, dated 2025).

Tests used:
[1] = test system: Welsh chafer, Hoplia philanthus grubs; test: Field trial, control of chafer grubs in golf course; assay type: in vivo; details: The Grove Golf Club, nematodes 2.5 billion per hectare twice weekly, Chlorpyrifos 2 litres a.i. per hectare once
Description: Trial was conducted at The Grove Golf Club, Watford, London, UK between May 2017 and October 2018. Treatments consisted of: Heterorhabditis bacteriophora 2.5 billion/ha applied alone, Pest control kit-C 2.5 billion/ha applied with Wetting agent composition (10 L/ha) and Chlorpyrifos (Equity) 2 L a.i./ha. All treatments were applied using soil injector followed conventional boom sprayer. Soil samples were taken at 2, 4, 6, and 8 weeks post application to assess grub population.
Field trials were conducted on a naturally infested tees, green and fairways containing a mixture of Welsh chafer, Hoplia philanthus (90%), Garden chafer, Phyllopertha horticola (3%), Summer chafer, Amphimallon solstitialis (1%), May beetle, Melolontha (4%) and wireworms Agriotes species (3%) at The Grove Golf Club, Watford, and Ashridge Golf Club, Berkhamsted, UK. […] No natural nematodes were detected by baiting soil samples with Galleria mellonella larvae.
One week before treatment, the pre-treatment larval density was determined in tees, greens and fairways (see FIG. 4) by taking three 16×16×10 to 15 cm soil plugs with a shovel or golf Hole Cutter (10 cm diameter). The living larvae were counted and expressed as number of larvae per square meter. […]
The treatments included: • 1. […] The larval density after treatment was determined 2, 4, 6, or 8 weeks after nematode or chlorpyrifos application. […]

sciarid fly larvae = test: Field trial, control of sciarid fly larvae in mushroom production; assay type: in vivo, Lycoriella spp.; details: first week of application
Description: Treatments consisted of: Carbofuran, Teflubenzuron, Steinernema feltiae alone or with Wetting agent composition (as Pest control kit-S). Trial was conducted in mushroom production farm in UK in 2016-17. Mushrooms were naturally infected with sciarid larvae and numbers counted week 1 and 3 post treatments. Each treatment was replicated 4 times with 15 plants/treatment.
Fungus gnats, also known as sciarid flies, found on and around growing media, are a major pest for greenhouse and polytunnel ornamental crops. The sciarid fly larvae are responsible for causing damage to an extensive variety of economically important potted plants directly through feeding on roots and stalk tissue of seedlings, cuttings and younger plants. They also cause damage indirectly through the transmission of fungal disease through the wounds caused by sciarid larvae. Pot plants known to be susceptible to sciarid attack include Poinsettia, Azalea, Cyclamen, Kalanchoe, Exacum, Gerbera, Begonia and others. All kinds of young plants and young rooted cuttings (vegetables, ornamentals and young nursery plants) are highly susceptible to sciarid larvae. […] Mushrooms were harvested for up to 4 weeks and number of dead and live larvae were counted. […]
The number of surviving larvae was transformed into percentage efficacy using the equation below and analysed using analysis of variance (ANOVA). […]

Row | SMILES | Control of chafer grubs [1] | Sciarid fly larvae control (sciarid fly larvae)
1 | CCOP(=S)(OCC)Oc1nc(Cl)c(Cl)cc1Cl [Chlorpyrifos] | 62% | 
2 | O=C(NC(=O)c1c(F)cccc1F)Nc1cc(Cl)c(F)c(Cl)c1F [Teflubenzuron] |  | 71%
